Values quoted from earlier work, collected in patent US20220356443A1, “PRODUCTION METHOD FOR CEREBRAL ORGANOID” (KEIO UNIVERSITY, priority 2019, published 2022).

System: deposits of amyloid β peptide
Conditions: relative to thioflavin-T; general statement on the staining reagent

## CNc1ccc(-c2nc3ccccc3s2)cc1 [BTA-1, 2-(4′-methylaminophenyl)benzothiazole]
  affinity to deposits of amyloid β peptide, higher than that of thioflavin-T: about 50 times
